Measurements from ChEMBL document CHEMBL2177097, “Discovery of (2S,3R)-N-[2-(pyridin-3-ylmethyl)-1-azabicyclo[2.2.2]oct-3-yl]benzo[b]furan-2-carboxamide (TC-5619), a selective α7 nicotinic acetylcholine receptor agonist, for the treatment of cognitive disorders” (J Med Chem, 2012).

Tests used:
[1] = Drug degradation in human liver microsomes at 60 mins; type: ADME, Microsome; details: read-out: Drug degradation
[2] = Drug degradation in human hepatocytes at 4 hrs; type: ADME, cell-based, Hepatocyte; details: read-out: Drug degradation
[3] = Ratio of drug level in brain to plasma in rat measured 6 hrs post dose; type: ADME; details: brain and plasma, read-out: BPR
[4] = Oral bioavailability in rat; type: ADME, organism-based; details: in vivo
[5] = Half life in rat; type: ADME, organism-based; details: in vivo

O=C(N[C@@H]1C2CCN(CC2)[C@H]1Cc1cccnc1)c1cc2ccccc2o1 [BRADANICLINE]
metabolised at 1 h [1]: < 25% | metabolised at 4 h [2]: 27% | Kp at 6 h [3]: 0.4 | bioavailability [4]: 20% | half-life [5]: 2 h
